Data from patent publication US20230172923A1, “METHODS OF TREATING CYTOKINE-RELATED ADVERSE EVENTS” (BRISTOL-MYERS SQUIBB COMPANY, priority 2020, published 2023).
Entries after “also recorded” stand apart in the source; their conditions may differ.

Assays:
Format in all cases: cell-based, human
[1] = test system: IL1-beta; test: CC-93269-induced IL1-beta secretion, co-culture of PBMCs and K562-BCMA cells (MSD)
Experimental: Co-cultures of PBMCs, target K562-BCMA cells and CC-93269 were prepared as for FIG. 9. At 6-, 24- and 48-hours post-incubation, the cell culture media was collected and levels of IL1-beta in the supernatant were assessed using an MSD assay (FIG. 13A). […] The circles indicate independent donors and the bars indicate median values; not all donors are shown because a data cut-off for the bottom ~10% of IL1-beta concentrations, below 100 pg/ml, was used to eliminate small changes that could skew the result and to increase confidence in results.
Fresh PBMCs were isolated from the blood (buffy coat) of healthy human volunteers by Ficoll based cell separation. The percentage of CD3+ T-cells (total) in the PBMCs was quantified by flow cytometry. The isolated PBMCs were seeded in 12 well plates at a concentration of 1.5×10^6 cells/ml and treated with 1 nM Compound 1 (CC-92480) or control DMSO overnight (~17 hours). After overnight incubation, target K562-BCMA cells were added to the wells at a ratio of 5:1, T-cells to target cells, followed by incubation with CC-93269 at various concentrations. […]
At 6, 24 and 48 hours post-incubation, the cell culture media was collected from all samples, spun down at 300 g for 5 minutes to remove cells and the supernatant was subjected to cytokine analysis to quantify secreted levels of IL1-beta using an MSD assay.

[2] = test system: TNF-alpha; test: CC-93269-induced TNF-alpha secretion, co-culture of PBMCs and K562-BCMA cells (MSD); conditions: Compound 1 pre-treatment; 24 hours
Experimental: (§1) Co-cultures of PBMCs, target K562-BCMA cells and CC-93269 were prepared as for FIG. 9. At 6-, 24- and 48-hours post-incubation, the cell culture media was collected and levels of TNF-alpha (FIG. 12A) and IL-2 (FIG. 12B) in the supernatant were assessed using an MSD assay. ULOQ = Upper limit of quantification.
(§2) Fresh PBMCs were isolated from the blood (buffy coat) of healthy human volunteers by Ficoll based cell separation. The percentage of CD3+ T-cells (total) in the PBMCs was quantified by flow cytometry. The isolated PBMCs were seeded in 12-well plates at a concentration of 1.5×10^6 cells/ml and treated with 1 nM Compound 1 (CC-92480), 1000 nM lenalidomide, 100 nM pomalidomide, 10 nM iberdomide, or control DMSO overnight (~17 hours).
(§3) After overnight incubation, target K562-BCMA cells (overexpress surface BCMA at a very high level) or control K562-MCB cells (no BCMA expression) were added to the wells at a ratio of 5:1, T-cells to target cells. K562-BCMA and K562-MCB are an isogenic pair that are derived from a chronic myelogenous leukemia (CML,) cell line. CC-93269 was added to the co-culture at various concentrations and incubated. CC-93269 is an anti-BCMA anti-CD3 bispecific T cell-engaging antibody and is also referred to herein as 42-TCBcv.

[3] = test system: IL-2; test: CC-93269-induced IL-2 secretion, co-culture of PBMCs and K562-BCMA cells (MSD); conditions: Compound 1 pre-treatment; 24 hours
Experimental: as §1, §2, §3

[4] = test system: IL-6; test: LPS-induced IL-6 secretion from monocytes with nigericin (MSD); conditions: overnight 1 nM, 10 nM or 100 nM Compound 1; LPS 4 hours, then 5 µg/ml nigericin 1 hour
Experimental: Monocytes from healthy volunteers were seeded at a concentration of 1×10^6 cells/ml and treated with the indicated concentration of Compound 1 overnight. The next morning, the monocytes were incubated with the indicated concentration of LPS for 4 hours, and then stimulation with 5 ug/ml of nigericin for 1 hour, before IL-6 levels in the supernatant were assessed using an MSD assay.
Monocytes from two healthy human donors were isolated as in Example 1. Here isolated monocytes (1×10^6 cells/ml) were treated with various concentrations of Compound 1 (1 nM, 10 nM, or 100 nM), or control DMSO (0.001%), overnight (~17 hours) before stimulation with various concentrations of LPS.
After 4 hours, 5 µg/ml of nigericin was added to activate the inflammasome for 1 hour, supernatants were harvested, and MSD analysis was performed to quantify secreted IL-6.

[5] = test system: MIP-1α; test: LPS-stimulated PBMC cytokine production, multiplex cytokine analysis: MIP-1α; conditions: Homo sapiens, PBMC, PBMC 2×10^6 cells/ml, compound 1 hour, then 1 ng/ml LPS 18 hours
Experimental: (§4) Peripheral blood mononuclear cells (PBMCs) were isolated from the blood of healthy human donors by Ficoll cell separation. The PBMCs were seeded at a concentration of 2×10^6 cells/ml and treated for 1 hour at 37° C. with various concentrations of IMiD compounds or control DMSO (0.25%), before stimulation with 1 ng/ml LPS for 18 hours at 37° C.
(§5) Supernatant samples were subjected to multiplex cytokine analysis (Luminex IS100 instrument) to quantify secreted levels of IL-6, IL-8, IL1-beta (IL-1β), GM-CSF, MDC, MIP-1alpha (MIP-1α), MIP-1beta (MIP-1β) and TNF-alpha (TNF-α) (see e.g. FIGS. 7A-C).
(§6) IC50 (half maximal inhibitory concentration) values were calculated to measure the potency of each IMiD compound in inhibiting LPS-stimulated secretion of each cytokine (see Table 25).

[6] = test system: MDC; test: LPS-stimulated PBMC cytokine production, multiplex cytokine analysis: MDC; conditions: Homo sapiens, PBMC, PBMC 2×10^6 cells/ml, compound 1 hour, then 1 ng/ml LPS 18 hours
Experimental: Peripheral blood mononuclear cells (PBMCs) were isolated from the blood of healthy human donors by Ficoll cell separation. […] Supernatant samples were subjected to multiplex cytokine analysis (Luminex IS100 instrument) to quantify secreted levels of IL-6, IL-8, IL1-beta (IL-1β), GM-CSF, MDC, MIP-1alpha (MIP-1α), MIP-1beta (MIP-1β) and TNF-alpha (TNF-α) (see e.g. FIGS. 7A-C). IC50 (half maximal inhibitory concentration) values were calculated to measure the potency of each IMiD compound in inhibiting LPS-stimulated secretion of each cytokine (see Table 25).

[7] = test system: IL-8; test: LPS-stimulated PBMC cytokine production, multiplex cytokine analysis: IL-8; conditions: Homo sapiens; PBMC 2×10^6 cells/ml, compound 1 hour, then 1 ng/ml LPS 18 hours
Experimental: as §4, §5, §6

[8] = test system: TNF-α; test: LPS-stimulated PBMC cytokine production, multiplex cytokine analysis: TNF-α; conditions: Homo sapiens, PBMC, PBMC 2×10^6 cells/ml, compound 1 hour, then 1 ng/ml LPS 18 hours
Experimental: as §4, §5, §6

[9] = test system: IL-6, IL-8, IL-1β, GM-CSF, MDC, MIP-1α, MIP-1β and TNF-α; test: LPS-induced secretion of proinflammatory cytokines from PBMCs (whole multiplex panel, result in words); conditions: pre-treatment 1 hour, 1 ng/ml LPS 18 hours
Experimental: Peripheral blood mononuclear cells (PBMCs) from healthy volunteers were seeded at a concentration of 2×10^6 cells/ml and treated with the indicated concentrations of IMiD compounds or control DMSO (0.25%) for 1 hour, before stimulation with 1 ng/ml LPS. After 18 hours, proinflammatory cytokine levels in the supernatant were assessed by multiplex cytokine analysis.
as §4, §5

Row | IC50 [5] [µM] | IC50 [6] [µM] | IC50 [7] [µM] | IC50 [8] [µM] | SMILES | secretion of IL1-beta associated with CC-93269 activity, PBMCs + K562-BCMA ([1]; 1 nM Compound 1 pre-treatment overnight) | median reduction in IL1-beta levels relative to DMSO control ([1]; Compound 1 pre-treatment, 10 ng/ml CC-93269, 24 hours, PBMCs from 15 healthy donors) | CC-93269-induced TNF-alpha secretion from PBMCs with K562 target cells [2] | CC-93269-induced IL-2 secretion from PBMCs with K562 target cells [3] | LPS-induced IL-6 secretion from monocytes [4] | LPS-induced secretion of proinflammatory cytokines from PBMCs (effect in words) [9]
1 |  |  |  |  | N#Cc1ccc(N2CCN(Cc3ccc(COc4cccc5c4CN(C4CCC(=O)NC4=O)C5=O)cc3)CC2)c(F)c1 (stereo not drawn) [Compound 1, 4-(4-(4-(((2-(2,6-dioxopiperidin-3-yl)-1-oxoisoindolin-4-yl)oxy)methyl)benzyl)piperazin-l-yl)-3-fluorobenzonitrile] | diminished/attenuated; also recorded: suppressed | ten-fold | potentiates | potentiates | diminished | 
2 | 0.028 | 0.0021 | > 10 | 0.00059 | O=C1CC[C@H](N2Cc3c(OCc4ccc(CN5CCOCC5)cc4)cccc3C2=O)C(=O)N1 [Iberdomide, (S)-3-(4-((4-(morpholinomethyl)benzyl)oxy)-1-oxoisoindolin-2-yl)piperidine-2,6-dione] |  |  |  |  |  | inhibited
3 | > 10 | 0.19 | > 10 | 0.22 | Nc1cccc2c1CN(C1CCC(=O)NC1=O)C2=O (centres unmarked) [Lenalidomide, 3-(4-amino-1-oxo-2,3-dihydro-1H-isoindol-2-yl) piperidine-2,6-dione] |  |  |  |  |  | inhibited
4 | 0.23 | 0.031 | 2.9 | 0.033 | Nc1cccc2c1C(=O)N(C1CCC(=O)NC1=O)C2=O (centres unmarked) [Pomalidomide, 4-amino-2-(2,6-dioxopiperidine-3-yl)isoindoline-1,3-dione] |  |  |  |  |  | inhibited
